Results: patent US20020035061A1, “COMPOSITIONS AND METHODS FOR TREATING INFECTIONS USING CATIONIC PEPTIDES ALONE OR IN COMBINATION WITH ANTIBIOTICS” (priority 1996, published 2002)
Read-outs that look alike come from different tables or passages of the source.

What was measured:
[1] = tested on: P. aeruginosa; assay type: cell-based; details: for Peptide MIC values: agarose dilution
[2] = tested on: MSSA (Smith, ATCC # 19640); test: In vivo efficacy, MSSA infection; set-up: species or system S. aureus; details: formulation D, 60 min post-infection, end of eight day observation
[3] = tested on: E. faecium; assay type: cell-based
[4] = tested on: S. marcescens; assay type: cell-based
[5] = tested on: E. cloacae; assay type: cell-based; details: E. cloacae strain ECL007
[6] = tested on: S. aureus; assay type: cell-based; details: for Peptide MIC values: agarose dilution
[7] = tested on: K. pneumoniae; assay type: cell-based
[8] = tested on: S. maltophilia; assay type: cell-based
[9] = tested on: E. coli; assay type: cell-based; details: for Peptide MIC values: agarose dilution
[10] = tested on: E. faecalis; assay type: cell-based
[11] = tested on: A. calcoaceticus; assay type: cell-based
[12] = tested on: S. epidermidis; assay type: cell-based
[13] = tested on: microorganisms with acquired resistance; test: microbe, parasite or virus in culture; assay type: cell-based; details: S. aureus; combination with Mupirocin; in µg/mL
[14] = tested on: S. pneumoniae; test: Agarose dilution assay (MIC); assay type: cell-based; details: agarose dilution

IKKWPWWPWRRK [MBI 11G2CN]
MIC ([1]; P. aeruginosa strain PA004): >128 µg/mL | % Survival ([2]; 12 mg/kg ip): 10% | % Survival ([2]; 18 mg/kg ip): 0% | % Survival ([2]; 24 mg/kg ip): 40% | MIC ([3]; E. faecium strain EFM002): 4 µg/mL | MIC ([4]; S. marcescens strain SMS004): >128 µg/mL | MIC [5]: >128 µg/mL | MIC ([6]; S. aureus strain SA009): 2 µg/mL | MIC ([7]; K. pneumoniae strain KP002): 128 µg/mL | MIC ([8]; S. maltophilia strain SMA001): >128 µg/mL | MIC ([9]; E. coli strain ECO003): 16 µg/mL | MIC ([10]; E. faecalis strain EFS004): 16 µg/mL

ILKKWPWWWRRK [MBI 11G5CN]
MIC ([1]; P. aeruginosa strain PA003): >128 µg/mL | MIC ([3]; E. faecium strain EFM002): 8 µg/mL | MIC ([4]; S. marcescens strain SMS004): >128 µg/mL | MIC ([11]; A. calcoaceticus strain AC002): 4 µg/mL | MIC [5]: >128 µg/mL | MIC ([6]; S. aureus strain SA012): 4 µg/mL | MIC ([7]; K. pneumoniae strain KP001): >128 µg/mL | MIC ([8]; S. maltophilia strain SMA002): 64 µg/mL | MIC ([9]; E. coli strain ECO003): 16 µg/mL | MIC ([10]; E. faecalis strain EFS002): 16 µg/mL | MIC ([12]; S. epidermidis strain SE002): 2 µg/mL

ILKKWVWWVWRRK [MBI 11F1CN]
MIC ([1]; P. aeruginosa strain PA004): 64 µg/mL | Peptide MIC values ([1]; P. aeruginosa ATCC 27853): 64 µg/mL | Peptide MIC values ([1]; P. aeruginosa NCTC 10662): 64 µg/mL | MIC ([3]; E. faecium strain EFM003): 2 µg/mL | Peptide MIC values ([3]; agarose dilution): 8 µg/mL | MIC ([4]; S. marcescens strain SBSM1): >128 µg/mL | MIC ([4]; S. marcescens strain SMS003): >128 µg/mL | Peptide MIC values ([4]; agarose dilution, S. marcescens SM82): >128 µg/mL | MIC [5]: >128 µg/mL | MIC ([6]; S. aureus strain SA009): 2 µg/mL | Peptide MIC values ([6]; S. aureus MRSA9): 2 µg/mL | Peptide MIC values ([6]; S. aureus MRSA13): 16 µg/mL | Peptide MIC values ([6]; S. aureus MRSA17): 2 µg/mL | MIC ([7]; K. pneumoniae strain KP002): 32 µg/mL | Peptide MIC [13]: 8 | MIC ([9]; E. coli strain ECO003): 8 µg/mL | Peptide MIC values ([9]; E. coli ATCC 25922): 8 µg/mL | Peptide MIC values ([9]; E. coli NCTC 10418): 2 µg/mL | MIC ([10]; E. faecalis strain EFS004): 16 µg/mL | Peptide MIC values ([14]; S. pneumoniae 406LE8): 128 µg/mL | Peptide MIC values ([14]; S. pneumoniae 60120): 128 µg/mL | Peptide MIC values ([14]; S. pneumoniae ATCC 49619): 64 µg/mL

ILKKWWWPWRRK [MBI 11G4CN]
MIC ([1]; P. aeruginosa strain PA004): >128 µg/mL | % Survival ([2]; 12 mg/kg ip): 0% | % Survival ([2]; 18 mg/kg ip): 0% | % Survival ([2]; 24 mg/kg ip): 20% | MIC ([3]; E. faecium strain EFM003): 1 µg/mL | MIC ([4]; S. marcescens strain SMS003): >128 µg/mL | MIC ([11]; A. calcoaceticus strain AC002): 4 µg/mL | MIC [5]: >128 µg/mL | MIC ([6]; S. aureus strain SA004): 1 µg/mL | MIC ([7]; K. pneumoniae strain KP001): >128 µg/mL | MIC ([8]; S. maltophilia strain SMA002): 64 µg/mL | MIC ([9]; E. coli strain ECO005): 32 µg/mL | MIC ([10]; E. faecalis strain EFS002): 32 µg/mL | MIC ([12]; S. epidermidis strain SE010): 2 µg/mL

ILKNPNNPWRR [MBI 11G7ACN]
MIC ([1]; P. aeruginosa strain PA006): >32 µg/mL | MIC ([3]; E. faecium strain EFM001): 8 µg/mL | MIC ([4]; S. marcescens strain SMS004): >32 µg/mL | MIC ([11]; A. calcoaceticus strain AC002): 4 µg/mL | MIC [5]: >32 µg/mL | MIC ([6]; S. aureus strain SA010): 1 µg/mL | MIC ([7]; K. pneumoniae strain KP002): >32 µg/mL | MIC ([8]; S. maltophilia strain SMA001): 32 µg/mL | MIC ([9]; E. coli strain ECO002): 16 µg/mL | MIC ([10]; E. faecalis strain EFS008): 32 µg/mL | MIC ([12]; S. epidermidis strain SE002): 4 µg/mL

ILKWPWWPWRK [MBI 11B5CN]
MIC ([1]; P. aeruginosa strain PA004): >128 µg/mL | MIC ([3]; E. faecium strain EFM002): 1 µg/mL | MIC ([4]; S. marcescens strain SMS003): >128 µg/mL | MIC ([11]; A. calcoaceticus strain AC002): 4 µg/mL | MIC [5]: >128 µg/mL | MIC ([6]; S. aureus strain SA005): 2 µg/mL | MIC ([6]; S. aureus strain SA014): 2 µg/mL | MIC ([6]; S. aureus strain SA093): 1 µg/mL | MIC ([7]; K. pneumoniae strain KP001): 16 µg/mL | MIC ([8]; S. maltophilia strain SMA002): 64 µg/mL | MIC ([9]; E. coli strain ECO005): 16 µg/mL | MIC ([10]; E. faecalis strain EFS001): 2 µg/mL | MIC ([10]; E. faecalis strain EFS002): 16 µg/mL | MIC ([10]; E. faecalis strain EFS008): 8 µg/mL | MIC ([12]; S. epidermidis strain SE010): 1 µg/mL

ILRRWPWWPWRRR [MBI 11B9ACN]
MIC ([1]; P. aeruginosa strain PA005): >128 µg/mL | MIC ([3]; E. faecium strain EFM001): 4 µg/mL | MIC ([4]; S. marcescens strain SMS004): >128 µg/mL | MIC ([11]; A. calcoaceticus strain AC001): 32 µg/mL | MIC [5]: >128 µg/mL | MIC ([6]; S. aureus strain SA019): 2 µg/mL | MIC ([7]; K. pneumoniae strain KP002): 32 µg/mL | MIC ([8]; S. maltophilia strain SMA001): 16 µg/mL | MIC ([9]; E. coli strain ECO003): 8 µg/mL | MIC ([10]; E. faecalis strain EFS004): 8 µg/mL | MIC ([12]; S. epidermidis strain SE002): 2 µg/mL

LKKWPWWPWRRK [MBI 11D1CN]
MIC ([1]; P. aeruginosa strain PA003): >128 µg/mL | MIC ([3]; E. faecium strain EFM001): 16 µg/mL | MIC ([4]; S. marcescens strain SMS003): >128 µg/mL | MIC ([11]; A. calcoaceticus strain AC001): >128 µg/mL | MIC [5]: >128 µg/mL | MIC ([6]; S. aureus strain SA004): 2 µg/mL | MIC ([7]; K. pneumoniae strain KP002): 64 µg/mL | MIC ([8]; S. maltophilia strain SMA001): 64 µg/mL | MIC ([9]; E. coli strain ECO002): 16 µg/mL | MIC ([10]; E. faecalis strain EFS002): 32 µg/mL | MIC ([12]; S. epidermidis strain SE010): 8 µg/mL

WWKKWPWWPWRRK [MBI 11C5CN]
MIC ([1]; P. aeruginosa strain PA003): 64 µg/mL | MIC ([3]; E. faecium strain EFM003): 2 µg/mL | MIC ([4]; S. marcescens strain SMS004): >128 µg/mL | MIC ([11]; A. calcoaceticus strain AC001): 32 µg/mL | MIC [5]: >128 µg/mL | MIC ([6]; S. aureus strain SA009): 2 µg/mL | MIC ([7]; K. pneumoniae strain KP002): 16 µg/mL | MIC ([8]; S. maltophilia strain SMA002): 16 µg/mL | MIC ([9]; E. coli strain ECO001): 8 µg/mL | MIC ([10]; E. faecalis strain EFS002): 16 µg/mL | MIC ([12]; S. epidermidis strain SE002): 2 µg/mL
